Assay results taken from the supplement of paper PMC10307832.

Assays:
Assay in all cases: relative viability (nuclei count vs DMSO), 5 days (fraction); higher = more cells survive
AZD1208 + Alpelisib = compound: N[C@@H]1CCCN(c2c(/C=C3\SC(=O)NC3=O)cccc2-c2ccccc2)C1 [AZD1208] + Cc1nc(NC(=O)N2CCC[C@H]2C(N)=O)sc1-c1ccnc(C(C)(C)C(F)(F)F)c1 [Alpelisib] (partner 2 µM)
How it was run: (§1)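 Dosing by pin tool came one day after lung cancer cell lines were seeded in 1536-well plates, using either one drug or a fixed anchor-drug dose plus five library-drug doses (not always all listed) in √10 steps. After 5 days, nuclei were counted on 4× images. Relative viability is treated-well nuclei count divided by vehicle-well nuclei count, and values are medians of duplicate plates.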

XMD14-99 + Lapatinib = compound: CN1CCN(CC1)C2=CC(=C(C=C2)NC3=NC(=C(S3)C(=O)C4=C(C=CC=C4Cl)Cl)N)OC [XMD14-99] + CS(=O)(=O)CCNCc1ccc(-c2ccc3ncnc(Nc4ccc(OCc5cccc(F)c5)c(Cl)c4)c3c2)o1 [Lapatinib] (partner 2 µM)
How it was run: as §1

XMD14-99 + Pictilisib = compound: CN1CCN(CC1)C2=CC(=C(C=C2)NC3=NC(=C(S3)C(=O)C4=C(C=CC=C4Cl)Cl)N)OC [XMD14-99] + CS(=O)(=O)N1CCN(Cc2cc3nc(-c4cccc5[nH]ncc45)nc(N4CCOCC4)c3s2)CC1 [Pictilisib] (partner 1 µM)
How it was run: as §1

AZD1208 + Lapatinib = compound: N[C@@H]1CCCN(c2c(/C=C3\SC(=O)NC3=O)cccc2-c2ccccc2)C1 [AZD1208] + CS(=O)(=O)CCNCc1ccc(-c2ccc3ncnc(Nc4ccc(OCc5cccc(F)c5)c(Cl)c4)c3c2)o1 [Lapatinib] (partner 2 µM)
How it was run: as §1

Cell Line	relative viability (AZD1208 + Alpelisib; first compound 0.08 µM)	relative viability (AZD1208 + Alpelisib; first compound 0.253 µM)	relative viability (AZD1208 + Alpelisib; first compound 0.8 µM)	relative viability (AZD1208 + Alpelisib; first compound 2.53 µM)	relative viability (AZD1208 + Alpelisib; first compound 8 µM)	relative viability (XMD14-99 + Lapatinib; first compound 0.08 µM)	relative viability (XMD14-99 + Lapatinib; first compound 0.8 µM)	relative viability (XMD14-99 + Lapatinib; first compound 2.53 µM)	relative viability (XMD14-99 + Lapatinib; first compound 8 µM)	relative viability (XMD14-99 + Pictilisib; first compound 0.08 µM)	relative viability (XMD14-99 + Pictilisib; first compound 0.8 µM)	relative viability (XMD14-99 + Pictilisib; first compound 2.53 µM)	relative viability (XMD14-99 + Pictilisib; first compound 8 µM)	relative viability (AZD1208 + Lapatinib; first compound 0.08 µM)	relative viability (AZD1208 + Lapatinib; first compound 0.253 µM)	relative viability (AZD1208 + Lapatinib; first compound 0.8 µM)	relative viability (AZD1208 + Lapatinib; first compound 2.53 µM)	relative viability (AZD1208 + Lapatinib; first compound 8 µM)
NCI-H2126	0.703	0.724	0.652	0.642	0.624	0.77	0.756	0.765	0.701	0.5	0.527	0.508	0.473	0.796	0.689	0.63	0.691	0.525
LK-2	0.85	0.759	0.618	0.567	0.477	0.801	1.01	0.823	0.949	0.592	0.506	0.517	0.465	0.738	0.616	0.63	0.39	0.447
NCI-H1437	0.927	0.981	0.796	0.827	0.504	0.804	0.745	0.573	0.458	0.392	0.416	0.34	0.214	0.833	1.04	0.69	0.775	0.691
COR-L23	0.735	0.64	0.715	0.721	0.657	0.906	0.924	0.931	0.517	0.676	0.748	0.68	0.414	0.991	1.18	0.942	1.02	0.916
ABC-1	1.14	0.727	0.769	0.903	0.935	1.05	1.18	1.17	1.05	0.754	0.667	0.588	0.47	1.14	0.904	1.05	1.09	1.06
PC-14	0.928	1	0.956	0.917	0.931	0.328	0.303	0.262	0.216	0.621	0.611	0.573	0.312	0.298	0.417	0.295	0.327	0.317
A549	0.676	0.622	0.48	0.687	0.448	0.857	0.923	0.983	0.685	0.397	0.545	0.505	0.348	0.899	0.921	0.859	0.828	0.721
A-427	1.02	1.07	1.02	1.02	0.97	1.14	0.984	0.999	0.898	0.694	0.784	0.607	0.448	1.11	0.988	0.843	1.15	0.815
NCI-H1792	0.629	0.742	0.579	0.608	0.535	0.995	0.89	0.912	0.536	0.281	0.252	0.22	0.182	0.874	0.999	0.885	0.908	0.757
